Our source for the IC50 values is ChEMBL document CHEMBL5728216, “Cyclopropyl fused thiazine derivatives as beta-secretase inhibitors and methods of use” (2021).

One assay has as its target Beta-secretase 1 (Homo sapiens, UniProt P56817). The experiment in a line: In Vitro Enzymatic FRET (Fluorescence Resonance Energy Transfer) Assays: The cDNAs for both human recombinant BACE1 and 2 with C-terminal 6-His Tags were cloned into transient protein expression vectors, which were subsequently transfected into mammalian cell lines. These recombinant proteins were further purified using Ni-NTA affinity chromatography (Qiagen). The assay buffer used in these screens was 0.05 M acetate, pH 4.5, 8% DMSO final, 100 μM genapol (which is a nonionic detergent, below its Critical Micelle Concentration). The β-secretase enzyme (0.02 nM for BACE1 and 0.64 nM for BACE2), which was pre-incubated for one hour with the test compound, typically in about 1 uL of DMSO according to a serial dilution, was added thereto. The assay was effectively started by the addition of FRET substrate (50 nM) and the combination was incubated for one hour. The FRET assay was terminated by the addition of tris buffer, which raised the pH to neutrality, and the fluorescence was determined. The FRET substrate was a peptide with commercially available fluorophore and quencher, on opposite sides of the BACE cleavage site. The specific FRET substrate used in this assay was made by Amgen in-house. […].

The target in a further assay is T1, Beta-secretase 2 (Homo sapiens, UniProt Q9Y5Z0).
T1 sequence (Q9Y5Z0 whole entry): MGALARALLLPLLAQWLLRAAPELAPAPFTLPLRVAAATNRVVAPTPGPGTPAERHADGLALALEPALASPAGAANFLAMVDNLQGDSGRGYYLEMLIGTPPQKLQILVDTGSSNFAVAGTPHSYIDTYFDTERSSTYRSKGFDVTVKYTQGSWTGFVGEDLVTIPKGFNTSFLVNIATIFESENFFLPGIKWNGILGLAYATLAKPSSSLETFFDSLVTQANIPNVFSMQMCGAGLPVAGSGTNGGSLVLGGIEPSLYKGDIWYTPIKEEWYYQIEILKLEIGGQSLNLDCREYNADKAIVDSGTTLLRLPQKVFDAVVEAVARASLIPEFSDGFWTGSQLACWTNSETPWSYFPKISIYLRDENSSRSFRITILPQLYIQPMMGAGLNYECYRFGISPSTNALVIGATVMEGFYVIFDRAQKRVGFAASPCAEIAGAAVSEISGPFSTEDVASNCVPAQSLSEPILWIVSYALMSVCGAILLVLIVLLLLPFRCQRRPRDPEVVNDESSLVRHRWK
The experiment in a line: These recombinant proteins were further purified using Ni-NTA affinity chromatography (Qiagen).

In a further assay the target is Cathepsin D (Homo sapiens, UniProt P07339). In words: In Vitro Enzymatic FRET Assay: Recombinant CatD was expressed in CHO cells. The assay buffer for CatD was 0.05 M citrate pH 3.5, 10% DMSO final, 5 mM CHAPS. The CatD enzyme (9 nM) was pre-incubated for one hour with inhibitors, typically in about 1 uL of DMSO according to a serial dilution, is added thereto. The assays was effectively started by the addition of different FRET substrates (20 nM for CatD) and the combination was incubated for one hour. The FRET assay was terminated with by addition of tris buffer, which raises the pH to neutrality, and the fluorescence was determined. The FRET substrate was a peptide with commercially available fluorophore and quencher, on opposite sides of the CatD cleavage site. The CatD substrate peptide sequence was based on sequence #1 of Table 1 from Gulnik et al., FEBS Lett. 413(2):379-384 (1997). Proteolytic cleavage of the FRET substrate released quenching of fluorescence (CatD excitation 500 nm and emission 580 nm). In kind it is cell-based.
Chain of Cathepsin D (P07339 65-162 limits assumed): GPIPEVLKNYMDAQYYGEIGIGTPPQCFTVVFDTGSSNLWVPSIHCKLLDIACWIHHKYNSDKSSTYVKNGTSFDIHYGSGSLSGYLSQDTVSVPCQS
Chain of Cathepsin D (P07339 169-412 limits assumed): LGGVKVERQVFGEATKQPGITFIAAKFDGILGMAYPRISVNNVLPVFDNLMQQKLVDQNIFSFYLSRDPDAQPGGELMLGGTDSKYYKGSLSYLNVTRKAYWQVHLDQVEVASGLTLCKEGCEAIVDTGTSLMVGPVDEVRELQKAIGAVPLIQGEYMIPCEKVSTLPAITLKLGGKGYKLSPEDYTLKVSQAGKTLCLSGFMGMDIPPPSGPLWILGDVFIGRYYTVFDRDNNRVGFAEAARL

Chain of Beta-secretase 1 (P56817 whole entry): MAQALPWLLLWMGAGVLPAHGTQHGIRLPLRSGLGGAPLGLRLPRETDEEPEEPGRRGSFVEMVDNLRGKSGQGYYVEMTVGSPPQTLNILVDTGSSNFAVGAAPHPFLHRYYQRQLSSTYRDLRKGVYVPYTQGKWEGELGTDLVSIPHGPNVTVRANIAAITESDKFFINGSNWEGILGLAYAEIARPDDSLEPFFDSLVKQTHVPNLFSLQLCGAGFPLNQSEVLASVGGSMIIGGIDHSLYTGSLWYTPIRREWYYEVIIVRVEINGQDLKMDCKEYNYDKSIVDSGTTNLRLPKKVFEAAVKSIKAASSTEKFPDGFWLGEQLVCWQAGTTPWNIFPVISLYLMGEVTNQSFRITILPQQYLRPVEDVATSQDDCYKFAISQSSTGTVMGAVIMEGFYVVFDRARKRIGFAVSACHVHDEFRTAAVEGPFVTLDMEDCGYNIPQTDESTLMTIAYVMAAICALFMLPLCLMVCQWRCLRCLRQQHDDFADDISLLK

In the case of `COC[C@]12CC1[C@@](C)(c1cc(C#Cc3ncc(Cl)cc3C)ccc1F)N=C(N)S2` (stereo partly drawn), the IC50 at Beta-secretase 1 was 129 nM; at Beta-secretase 2, 613 nM; at Cathepsin D, > 400000 nM.
